Measured values from patent US12472177B2, “Bicyclic compounds and methods for their use in treating Pitt Hopkins syndrome” (NEUREN PHARMACEUTICALS LIMITED, priority 2019, dated 2025).

Experiments:
Format in all cases: in vivo, mouse
Tcf4^+/− mice [1] = experiment: Open field (hypoactivity, distance travelled); parameters: key to Open Field (Hypoactivity): Tukey’s Multiple Comparison Test Summary: **** = p < 0.00001; ns = not significant
Description: (§1) In vivo behavioral studies were conducted in Tcf4^+/− mutant and wildtype littermate control (WT) mice by Gen.DDI (Santiago, Chile). Littermate controls consist of the genotypes Tcf4^+/+. All Tcf4 mutant mice used were heterozygous for the Tcf4 mutation because homozygous mutations of Tcf4 result in embryonic to postnatal day 1 lethality. Ten mice per treatment group, 14 weeks of age, were used for behavioral experiments. Experiments were conducted in line with the requirements of the UK Animals (Scientific Procedures) Act, 1986. The mice were housed in plastic cages (35×30×12 cm), 5 in each and habituated to the animal facilities for at least a week before commencing the test. The room temperature (21° C.±2° C.), relative humidity (55%±5%), a 12-hour light-dark cycle (lights on 7 AM to 7 PM), and air exchange were automatically controlled. The animals had free access to commercial food pellets and water. Testing was performed during the light phase of the circadian cycle, with the order of testing being determined by the principle of conducting the most stressful tests last. Assays were designed to reproduce and expand on the original behavioral characterization of Tcf4^+/− mice. Tcf4^+/− and WT control mice were treated for 6 weeks prior to testing and tested 30 minutes following a dose of cG-2-AllylP, as described in Table 2 below.
The Open Field (OF) test is a combined test that is used to determine anxiety/hyperactivity, and for habituation to a novel environment, one of the most elementary forms of learning, in which decreased exploration as a function of repeated exposure to the same environment is taken as an index of memory. This is normally studied in two sessions of exposure to the open field, a 10-min and a 24 hr habituation session.
The device used for this study is a grey PVC enclosed arena 50×30 cm divided into 10 cm squares. Mice are brought to the experimental room 5-20 min before testing. A mouse is placed into a corner square facing the corner and observed for 3 min. The number of squares entered (whole body) and rears (both front paws off the ground, but not as part of grooming) are counted. The latency to the first rear is also noted. The movement of the mouse around the field was recorded with a video tracking device for 300 s (vNT4.0, Viewpoint). The latency for the mouse to enter the brightest, central part of the field total time spent in this central region, and total activity (in terms of path length in centimetres), were recorded.
The open field (OF) test is a test used to characterize explorative behavior, anxiety, and/or hypo- and hyperactivity in animals habituated to daily handling under novel and familiar conditions. During exposure to the open field mice will habituate to the environment and thus explore less, decreasing the amount movement they show over time.
In the present experiment, we recorded movement and rearing during an initial exposure (T1), during a second exposure after 10 minutes (T2) and during a third exposure after 24 hours (T3). Failures to reduce locomotion or rearing at 10 minutes and 24 hours indicate deficits in short- and long-term memory, respectively.
To evaluate whether cG-2-AllylP is effective to treat the hypoactivity in PTHS, we carried out Open Field studies. Lower scores on measures of open field locomotion were detected in Tcf4^+/− as compared to WT littermates, across the 30-minute test session.
The relative distance travelled is shown on the vertical axis, and the animals and their treatments are shown on the horizontal axis. Wild type (WT) mice treated with vehicle alone (left column) were considered to travel 100%. […] The effect of NNZ-2591 (cG-2-AllylP) were statistically significant.

Tcf4^+/− mice [2] = experiment: Self grooming (repetitive behavior); parameters: key to Self-Grooming/Repetitive Behavior: Tukey’s Multiple Comparison Test Summary: **** = p < 0.00001; ns = not significant
Description: as §1
Repetitive self-grooming is a feature of mice. Tcf4^+/− mice show an increased amount of self-grooming compared to wild type mice. To see if NNZ-2591 (cG-2-AllylP) can normalize self-grooming behavior in Tcf4^+/− mice, we carried out a series of studies, as shown in FIG. 3.
The amount of time spent grooming in seconds during a 10-minute test period is shown on the vertical axis, and the animals and treatments are shown on the horizontal axis. Wild type (WT) mice treated with vehicle alone (left column) self-groomed for about 110 sec. […] This difference was not statistically significant. […] This statistically significant finding was completely unexpected in Tcf4^+/− mice.

Tcf4^+/− mice [3] = experiment: Nest building (test of daily living)
Description: as §1
Nest building is an activity needed for mice to raise their offspring and is an indicator of social adaptation and activities of daily living. Tcf4^+/− mice build nests of substantially lower quality than wild type mice. Therefore, to determine if NNZ-2591 (cG-2-AllylP) might restore the quality of nest building, we carried out a series of studies.

[4] = Tcf4^+/− + cG-2-AllylP (100 mg/kg) vs Tcf4^+/− + cG-2-AllylP (200 mg/kg)
[5] = Tcf4^+/− + cG-2-AllylP (100 mg/kg) vs WT + cG-2-AllylP (200 mg/kg)
[6] = Tcf4^+/− + vehicle vs Tcf4^+/− + cG-2-AllylP (200 mg/kg)
[7] = Tcf4^+/− + vehicle vs WT + cG-2-AllylP (100 mg/kg)
[8] = Tcf4^+/− mice, 100 mg/kg oral BID 6 weeks
[9] = Tcf4^+/− mice, 200 mg/kg oral BID 6 weeks
[10] = WT + cG-2-AllylP (100 mg/kg) vs Tcf4^+/− + cG-2-AllylP (100 mg/kg)
[11] = WT + cG-2-AllylP (100 mg/kg) vs Tcf4^+/− + cG-2-AllylP (200 mg/kg)
[12] = WT + cG-2-AllylP (100 mg/kg) vs WT + cG-2-AllylP (200 mg/kg)
[13] = WT + cG-2-AllylP (200 mg/kg) vs Tcf4^+/− + cG-2-AllylP (200 mg/kg)
[14] = WT + vehicle vs Tcf4^+/− + cG-2-AllylP (100 mg/kg)
[15] = WT + vehicle vs Tcf4^+/− + cG-2-AllylP (200 mg/kg)
[16] = WT + vehicle vs WT + cG-2-AllylP (100 mg/kg)
[17] = WT + vehicle vs WT + cG-2-AllylP (200 mg/kg)
[18] = WT mice, 100 mg/kg oral BID 6 weeks
[19] = WT mice, 200 mg/kg oral BID 6 weeks
[20] = Tcf4^+/− + vehicle vs Tcf4^+/− + cG-2-AllylP (100 mg/kg)
[21] = Tcf4^+/− + vehicle vs WT + cG-2-AllylP (200 mg/kg)

C=CC[C@]12CCCN1C(=O)CNC2=O [cG-2-AllylP, (8aS)-Allyl-hexahydropyrrolo[1,2-a]pyrazine-1,4-dione]
Open Field (Hypoactivity): Tukey’s Multiple Comparison Test Summary (Tcf4^+/− mice [1]; [4]): ns | Open Field (Hypoactivity): Tukey’s Multiple Comparison Test Summary (Tcf4^+/− mice [1]; [5]): ns | Open Field (Hypoactivity): Tukey’s Multiple Comparison Test Summary (Tcf4^+/− mice [1]; Tcf4^+/− + vehicle vs Tcf4^+/− + cG-2-AllylP 1 (200 mg/kg) [r21-22]): **** (**** = p < 0.00001) | Open Field (Hypoactivity): Tukey’s Multiple Comparison Test Summary (Tcf4^+/− mice [1]; Tcf4^+/− + vehicle vs Tcf4^+/− + cG-2-AllylP (100 mg/kg) [r23-24]): **** (**** = p < 0.00001) | Open Field (Hypoactivity): Tukey’s Multiple Comparison Test Summary (Tcf4^+/− mice [1]; [6]): **** (**** = p < 0.00001) | Open Field (Hypoactivity): Tukey’s Multiple Comparison Test Summary (Tcf4^+/− mice [1]; [7]): **** (**** = p < 0.00001) | Behavior Normalized to WildType Levels: Open Field (Tcf4^+/− mice [1]; Tcf4^+/− mice, 100 mg/kg): ✓ | Relative distance travelled (mobility), open field (Tcf4^+/− mice [1]; [8]): nearly identical mobility as did WT mice treated with vehicle alone | Behavior Normalized to WildType Levels: Open Field (Tcf4^+/− mice [1]; Tcf4^+/− mice, 200 mg/kg): ✓ | Relative distance travelled (mobility), open field (Tcf4^+/− mice [1]; [9]): normalized this mild to moderate hypoactivity | Open Field (Hypoactivity): Tukey’s Multiple Comparison Test Summary (Tcf4^+/− mice [1]; [10]): ns | Open Field (Hypoactivity): Tukey’s Multiple Comparison Test Summary (Tcf4^+/− mice [1]; [11]): ns | Open Field (Hypoactivity): Tukey’s Multiple Comparison Test Summary (Tcf4^+/− mice [1]; [12]): ns | Open Field (Hypoactivity): Tukey’s Multiple Comparison Test Summary (Tcf4^+/− mice [1]; [13]): ns | Open Field (Hypoactivity): Tukey’s Multiple Comparison Test Summary (Tcf4^+/− mice [1]; [14]): ns | Open Field (Hypoactivity): Tukey’s Multiple Comparison Test Summary (Tcf4^+/− mice [1]; [15]): ns | Open Field (Hypoactivity): Tukey’s Multiple Comparison Test Summary (Tcf4^+/− mice [1]; [16]): ns | Open Field (Hypoactivity): Tukey’s Multiple Comparison Test Summary (Tcf4^+/− mice [1]; [17]): ns | Relative distance travelled (mobility), open field (Tcf4^+/− mice [1]; [18]): slightly higher mobility than WT mice treated with vehicle | Relative distance travelled (mobility), open field (Tcf4^+/− mice [1]; [19]): nearly the same mobility | Self-Grooming/Repetitive Behavior: Tukey’s Multiple Comparison Test Summary (Tcf4^+/− mice [2]; [4]): ns | Self-Grooming/Repetitive Behavior: Tukey’s Multiple Comparison Test Summary (Tcf4^+/− mice [2]; [5]): ns | Self-Grooming/Repetitive Behavior: Tukey’s Multiple Comparison Test Summary (Tcf4^+/− mice [2]; [20]): **** (**** = p < 0.0001) | Self-Grooming/Repetitive Behavior: Tukey’s Multiple Comparison Test Summary (Tcf4^+/− mice [2]; [6]): **** (**** = p < 0.0001) | Self-Grooming/Repetitive Behavior: Tukey’s Multiple Comparison Test Summary (Tcf4^+/− mice [2]; [7]): **** (**** = p < 0.0001) | Self-Grooming/Repetitive Behavior: Tukey’s Multiple Comparison Test Summary (Tcf4^+/− mice [2]; [21]): **** (**** = p < 0.0001) | Behavior Normalized to WildType Levels: Self-groom (Tcf4^+/− mice [2]; Tcf4^+/− mice, 100 mg/kg): ✓ | Time spent self-grooming during a 10-minute test period (Tcf4^+/− mice [2]; Tcf4^+/− mice, 100 mg/kg oral BID 6 weeks, 100 mg/kg): corrected | Time spent self-grooming during a 10-minute test period (Tcf4^+/− mice [2]; Tcf4^+/− mice, 100 mg/kg oral BID 6 weeks, listed as NNZ-2591, 100 mg/kg): about the same amount of time self-grooming as WT vehicle treated mice | Behavior Normalized to WildType Levels: Self-groom (Tcf4^+/− mice [2]; Tcf4^+/− mice, 200 mg/kg): ✓ | Time spent self-grooming during a 10-minute test period (Tcf4^+/− mice [2]; Tcf4^+/− mice, 200 mg/kg oral BID 6 weeks, 200 mg/kg): corrected | Time spent self-grooming during a 10-minute test period (Tcf4^+/− mice [2]; Tcf4^+/− mice, 200 mg/kg oral BID 6 weeks, listed as NNZ-2591, 200 mg/kg): about the same amount of time self-grooming as WT vehicle treated mice | Self-Grooming/Repetitive Behavior: Tukey’s Multiple Comparison Test Summary (Tcf4^+/− mice [2]; [10]): ns | Self-Grooming/Repetitive Behavior: Tukey’s Multiple Comparison Test Summary (Tcf4^+/− mice [2]; [11]): ns | Self-Grooming/Repetitive Behavior: Tukey’s Multiple Comparison Test Summary (Tcf4^+/− mice [2]; [12]): ns | Self-Grooming/Repetitive Behavior: Tukey’s Multiple Comparison Test Summary (Tcf4^+/− mice [2]; [13]): ns | Self-Grooming/Repetitive Behavior: Tukey’s Multiple Comparison Test Summary (Tcf4^+/− mice [2]; [14]): ns | Self-Grooming/Repetitive Behavior: Tukey’s Multiple Comparison Test Summary (Tcf4^+/− mice [2]; [15]): ns | Self-Grooming/Repetitive Behavior: Tukey’s Multiple Comparison Test Summary (Tcf4^+/− mice [2]; [16]): ns | Self-Grooming/Repetitive Behavior: Tukey’s Multiple Comparison Test Summary (Tcf4^+/− mice [2]; [17]): ns | Time spent self-grooming during a 10-minute test period (Tcf4^+/− mice [2]; [18]): about the same amount of time as did WT mice treated with vehicle alone | Test of Daily Living: Tukey’s Multiple Comparison Test Summary (Tcf4^+/− mice [3]; [4]): ns | Test of Daily Living: Tukey’s Multiple Comparison Test Summary (Tcf4^+/− mice [3]; [5]): ns | Test of Daily Living: Tukey’s Multiple Comparison Test Summary (Tcf4^+/− mice [3]; [20]): **** (**** = p < 0.0001) | Test of Daily Living: Tukey’s Multiple Comparison Test Summary (Tcf4^+/− mice [3]; [6]): **** (**** = p < 0.0001) | Test of Daily Living: Tukey’s Multiple Comparison Test Summary (Tcf4^+/− mice [3]; [7]): **** (**** = p < 0.0001) | Test of Daily Living: Tukey’s Multiple Comparison Test Summary (Tcf4^+/− mice [3]; [21]): **** (**** = p < 0.0001) | Behavior Normalized to WildType Levels: Nesting (Tcf4^+/− mice [3]; Tcf4^+/− mice, 100 mg/kg): ✓ | Nest building quality (grade of 1-5) (Tcf4^+/− mice [3]; [8]): normalized the quality of nests to levels nearly identical to WT mice | Behavior Normalized to WildType Levels: Nesting (Tcf4^+/− mice [3]; Tcf4^+/− mice, 200 mg/kg): ✓ | Nest building quality (grade of 1-5) (Tcf4^+/− mice [3]; [9]): normalized the quality of nests to levels nearly identical to WT mice | Test of Daily Living: Tukey’s Multiple Comparison Test Summary (Tcf4^+/− mice [3]; [10]): ns | Test of Daily Living: Tukey’s Multiple Comparison Test Summary (Tcf4^+/− mice [3]; [11]): ns | Test of Daily Living: Tukey’s Multiple Comparison Test Summary (Tcf4^+/− mice [3]; [12]): ns | Test of Daily Living: Tukey’s Multiple Comparison Test Summary (Tcf4^+/− mice [3]; [13]): ns | Test of Daily Living: Tukey’s Multiple Comparison Test Summary (Tcf4^+/− mice [3]; [14]): ns | Test of Daily Living: Tukey’s Multiple Comparison Test Summary (Tcf4^+/− mice [3]; [15]): ns | Test of Daily Living: Tukey’s Multiple Comparison Test Summary (Tcf4^+/− mice [3]; [16]): ns | Test of Daily Living: Tukey’s Multiple Comparison Test Summary (Tcf4^+/− mice [3]; [17]): ns | Nest building quality (grade of 1-5) (Tcf4^+/− mice [3]; [18]): nearly identical to those of vehicle-treated WT mice | Nest building quality (grade of 1-5) (Tcf4^+/− mice [3]; [19]): nearly identical to those of vehicle-treated WT mice
